Data on 24 molecules can be found in patent US20260308145A1, “CDK2 INHIBITORS AND METHODS OF USING SAME” (Shenzhen lonova Life Science Co., Ltd., priority 2023, published 2026).

Holding throughout (format): biochemical
Experiment [1] addresses T1, CDK4/cyclinD3 (Homo sapiens, UniProt P11802).
T1 construct: purchased Carna Biosciences 04-105
In words: Cyclin-dependent kinase activity assay (continuous ATP coupling assay), CDK4/cyclinD3. The following applies: CDK4/cyclinD3 60 nM, ATP 500 μM, Rb copeptide 500 μM, 15 min preincubation, pH 7.5, 1% DMSO. The method, then: (§1) Cyclin-dependent kinase activity assay was measured by continuous ATP coupling assay in which ADP generated by kinase catalyzed phosphorylation was converted back to ATP by consuming phosphoenolpyruvate (PEP) and NADH catalyzed by pyruvate kinase/lactate dehydrogenase (PK/LDH). The assay compositions (see, Table 1) consist of one of the kinases, including CDK1/cyclinB1, CDK2/cyclinE1, CDK4/cyclinD3, and CDK6/cyclinD3 at the designated concentration, ATP at the corresponding Km of the kinase, copeptide and the ATP coupling system of PEP, NADH and PK/LDH. The assay was conducted in a reaction buffer of 20 mM Tris (pH 7.5) with 50 mM NaCl, 0.5 mM DTT and 0.04% BSA, and results were monitored continuously by fluorescence decrease of NADH with excitation at 340 nm and emission at 460 nm. Linear regression of the resulting reaction time traces gave reaction velocities.
(§2) For inhibition assay, compounds were first serial diluted in a 1:3 ratio from 10 μM to 0.05 nM using 10× reaction buffer. One of the CDK kinase was then introduced to compounds solution and incubated for 15 min. Finally, the compositions of ATP coupling system were introduced to the resulting solution to initiate the reaction. The final reaction mixture was in 1× reaction assay buffer with 1% DMSO. The half-maximal inhibition concentrations (IC50) for compounds were determined by fitting the plots of reaction velocity against compound concentration with 4-variable IC50 equation. The inhibition constants (Ki) were determined by fitting the same plots with quadratic/Morrison equation. Data were analyzed using commercially available software Graphpad Prism.
(§3) Exemplary results are presented as calculated IC50 values. • A: IC50≤10 nM • B: IC50>10 nM and IC50<100 nM • C: IC50≥100 nM

The target of experiment [2] is T2, CDK2/cyclinE1 (Homo sapiens, UniProt P24941).
T2 construct: purchased Carna Biosciences 04-165
In words: Cyclin-dependent kinase activity assay (continuous ATP coupling assay), CDK2/cyclinE1. Conditions: CDK2/cyclinE1 5 nM, ATP 300 μM, Rb copeptide 100 μM, 15 min preincubation, pH 7.5, 1% DMSO. How it is done: as §1, §2, §3

Experiment [3] has as its target T3, CDK6/cyclinD3 (Homo sapiens, UniProt Q00534).
T3 construct: purchased Carna Biosciences 04-107
The experiment is described as follows: Cyclin-dependent kinase activity assay (continuous ATP coupling assay), CDK6/cyclinD3. Conditions: CDK6/cyclinD3 25 nM, ATP 500 μM, Rb copeptide 500 μM, 15 min preincubation, pH 7.5, 1% DMSO. How it is done:
as §1, §2, §3

Experiment [4] addresses T4, CDK1/cyclinB1 (Homo sapiens, UniProt P06493).
T4 construct: purchased Carna Biosciences 04-102
In words: Cyclin-dependent kinase activity assay (continuous ATP coupling assay), CDK1/cyclinB1. Conditions: CDK1/cyclinB1 10 nM, ATP 200 μM, Histone1 copeptide 100 μM, 15 min preincubation, pH 7.5, 1% DMSO. The method, then:
as §1, §2, §3

As a reminder, the pIC50 is the IC50 on a negative log10 scale, so that one unit is a factor of ten. A lower pIC50 goes with a high IC50.

pIC50: −log10 of the molar value.

T3 sequence (Q00534 whole entry): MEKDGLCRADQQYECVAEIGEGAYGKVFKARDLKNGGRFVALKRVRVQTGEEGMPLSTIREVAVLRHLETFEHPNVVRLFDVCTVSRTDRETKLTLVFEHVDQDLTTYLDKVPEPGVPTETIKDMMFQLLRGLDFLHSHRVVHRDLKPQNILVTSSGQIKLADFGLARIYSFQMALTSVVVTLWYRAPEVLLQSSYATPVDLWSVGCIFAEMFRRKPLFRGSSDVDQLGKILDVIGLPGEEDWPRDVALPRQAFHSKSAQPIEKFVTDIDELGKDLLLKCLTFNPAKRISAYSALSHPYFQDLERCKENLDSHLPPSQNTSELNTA
T3 sequence (P30281 whole entry partner): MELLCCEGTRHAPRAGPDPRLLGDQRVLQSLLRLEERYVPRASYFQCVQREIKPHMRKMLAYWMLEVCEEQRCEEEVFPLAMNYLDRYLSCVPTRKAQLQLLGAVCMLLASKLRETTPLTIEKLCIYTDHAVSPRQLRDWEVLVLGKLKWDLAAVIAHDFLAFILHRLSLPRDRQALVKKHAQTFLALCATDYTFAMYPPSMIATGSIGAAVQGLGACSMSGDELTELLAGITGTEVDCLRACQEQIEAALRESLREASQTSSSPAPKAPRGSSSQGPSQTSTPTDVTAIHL
T1 sequence (P11802 whole entry): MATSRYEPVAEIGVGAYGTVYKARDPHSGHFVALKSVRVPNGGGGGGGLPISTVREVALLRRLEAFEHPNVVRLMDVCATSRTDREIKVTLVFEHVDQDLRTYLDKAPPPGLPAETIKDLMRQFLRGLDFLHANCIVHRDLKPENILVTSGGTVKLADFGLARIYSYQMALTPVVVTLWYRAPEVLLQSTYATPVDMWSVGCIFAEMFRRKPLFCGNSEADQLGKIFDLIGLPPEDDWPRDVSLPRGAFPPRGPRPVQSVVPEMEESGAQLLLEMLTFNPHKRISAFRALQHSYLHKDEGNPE
T1 sequence (P30281 whole entry partner): as the sequence (P30281 whole entry partner) above
T4 sequence (P06493 whole entry): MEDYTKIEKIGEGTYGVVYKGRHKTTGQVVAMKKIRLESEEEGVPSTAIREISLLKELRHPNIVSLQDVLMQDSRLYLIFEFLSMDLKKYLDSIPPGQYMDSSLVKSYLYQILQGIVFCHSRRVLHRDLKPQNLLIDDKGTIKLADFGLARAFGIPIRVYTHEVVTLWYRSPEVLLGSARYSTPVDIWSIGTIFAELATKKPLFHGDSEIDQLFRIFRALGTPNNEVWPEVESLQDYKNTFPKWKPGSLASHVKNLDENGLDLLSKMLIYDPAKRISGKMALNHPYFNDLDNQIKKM
T4 sequence (P14635 whole entry partner): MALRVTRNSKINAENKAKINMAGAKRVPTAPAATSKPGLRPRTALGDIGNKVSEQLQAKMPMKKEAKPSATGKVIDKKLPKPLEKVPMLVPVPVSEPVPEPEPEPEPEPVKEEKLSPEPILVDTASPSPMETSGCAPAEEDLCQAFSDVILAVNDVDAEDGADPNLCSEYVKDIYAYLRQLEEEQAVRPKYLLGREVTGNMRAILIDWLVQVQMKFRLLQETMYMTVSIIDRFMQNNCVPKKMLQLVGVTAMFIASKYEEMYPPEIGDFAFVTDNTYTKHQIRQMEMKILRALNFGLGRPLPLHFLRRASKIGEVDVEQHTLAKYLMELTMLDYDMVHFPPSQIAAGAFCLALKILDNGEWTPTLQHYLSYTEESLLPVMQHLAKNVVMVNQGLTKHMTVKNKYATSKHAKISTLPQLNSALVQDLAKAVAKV

Take `CC(O)CNS(=O)(=O)c1ccc(Nc2ncc(C(F)(F)F)c(-n3cccn3)n2)cc1` (stereo not drawn) [Example 110]: the negative logarithm of the IC50 (pIC50) in experiment [1] is not above 7.00; in experiment [2] it was not below 8.00; in experiment [3], not above 7.00; in experiment [4] it was not above 7.00.
With `CNS(=O)(=O)c1ccc(Nc2ncc(C)c(-n3cc(CC(C)(C)O)cn3)n2)cc1` [Example 63], the pIC50 is 7.00 to 8.00 in experiment [1], 7.00 to 8.00 in experiment [2], 7.00 to 8.00 in experiment [3] and not above 7.00 in experiment [4].
As for `O=S(=O)(NC1CC1)c1ccc(Nc2ncc(C(F)(F)F)c(-n3cccn3)n2)cc1` [Example 30], the pIC50 in experiment [1] is not above 7.00; in experiment [2] it was 7.00 to 8.00; in experiment [3], not above 7.00; in experiment [4], not above 7.00.
For `O=S(=O)(CCCO)c1ccc(Nc2ncc(C(F)(F)F)c(-n3cccn3)n2)cc1` [Example 130, 3-[4-[[4-pyrazol-1-yl-5-(trifluoromethyl)pyrimidin-2-yl]amino]phenyl]sulfonylpropan-1-ol], the pIC50 was not above 7.00 in experiment [1], 7.00 to 8.00 in experiment [2], not above 7.00 in experiment [3] and not above 7.00 in experiment [4].
Regarding `CNS(=O)(=O)c1ccc(Nc2ncc(C(F)(F)F)c(-n3cc(C4CN(C(C)=O)C4)cn3)n2)cc1` [Example 99], the pIC50 in experiment [1] was not above 7.00; in experiment [2], 7.00 to 8.00; in experiment [3], not above 7.00; in experiment [4], not above 7.00.
Turning to `CNS(=O)(=O)c1ccc(Nc2ncc(C(F)(F)F)c(-n3cc([C@H]4C[C@@H](O)C4)cn3)n2)cc1` [Example 103, 4-[[4-[4-(3-hydroxycyclobutyl)pyrazol-1-yl]-5-(trifluoromethyl)pyrimidin-2-yl]amino]-N-methyl-benzene sulfonamide], the pIC50 in experiment [1] is 7.00 to 8.00; in experiment [2], not below 8.00; in experiment [3] it was 7.00 to 8.00; in experiment [4], 7.00 to 8.00.
In the case of `CNS(=O)(=O)c1ccc(Nc2ncc(Br)c(-n3cc(CC(C)(C)O)cn3)n2)cc1` [Example 68], the pIC50 in experiment [1] is 7.00 to 8.00; in experiment [2], not below 8.00; in experiment [3], 7.00 to 8.00; in experiment [4] it was 7.00 to 8.00.
As for `CNS(=O)(=O)c1ccc(Nc2ncc(C(F)(F)F)c(-n3cc(C4CCN(C)C4)cn3)n2)cc1` (single isomer, unassigned) [Example 95], the negative logarithm of the IC50 (pIC50) in experiment [1] is 7.00 to 8.00; in experiment [2] it was not below 8.00; in experiment [3], not above 7.00; in experiment [4] it was 7.00 to 8.00.
As for `CNS(=O)(=O)c1ccc(Nc2ncc(C(F)(F)F)c(-n3cc(N4CCNCC4)cn3)n2)cc1` [Example 85], the pIC50 is 7.00 to 8.00 in experiment [1], not below 8.00 in experiment [2], not above 7.00 in experiment [3] and 7.00 to 8.00 in experiment [4].
Turning to `O=S(=O)(NCC1(CO)CC1)c1ccc(Nc2ncc(C(F)(F)F)c(-n3cccn3)n2)cc1` [Example 132], the pIC50 was not above 7.00 in experiment [1], 7.00 to 8.00 in experiment [2], not above 7.00 in experiment [3] and not above 7.00 in experiment [4].
For `CNS(=O)(=O)c1ccc(Nc2ncc(C)c(-n3cccn3)n2)cc1` [Example 22], the pIC50 was not above 7.00 in experiment [1], 7.00 to 8.00 in experiment [2], not above 7.00 in experiment [3] and not above 7.00 in experiment [4].
As to `CNS(=O)(=O)c1ccc(Nc2ncc(C(F)F)c(-n3cc(CC(C)(C)O)cn3)n2)cc1` [Example 66], the negative logarithm of the IC50 (pIC50) in experiment [1] is 7.00 to 8.00; in experiment [2] it was 7.00 to 8.00; in experiment [3], 7.00 to 8.00; in experiment [4], not above 7.00.
In the case of `CNS(=O)(=O)c1ccc(Nc2ncc(C(F)(F)F)c(-n3cc(C4CCNC4)cn3)n2)cc1` (single isomer, unassigned) [Example 93], the pIC50 is 7.00 to 8.00 in experiment [1], not below 8.00 in experiment [2], not above 7.00 in experiment [3] and 7.00 to 8.00 in experiment [4].
For the molecule `CNS(=O)(=O)c1ccc(Nc2ncc(C(F)(F)F)c(-n3cc(N4CC(O)C4)cn3)n2)cc1` [Example 100], the negative-log IC50 (pIC50) in experiment [1] was not above 7.00; in experiment [2], not below 8.00; in experiment [3], not above 7.00; in experiment [4], 7.00 to 8.00.
For the molecule `CC(C)(O)c1cnn(-c2nc(NC3CCN(S(C)(=O)=O)CC3)ncc2F)c1` [Example 1, 2-(1-(5-fluoro-2-((1-(methylsulfonyl)piperidin-4-yl)amino)pyrimidin-4-yl)-1H-pyrazol-4-yl)propan-2-ol], the pIC50 is 7.00 to 8.00 in experiment [1], 7.00 to 8.00 in experiment [2], 7.00 to 8.00 in experiment [3] and not above 7.00 in experiment [4].
Turning to `CS(=O)(=O)Nc1cccc(Nc2ncc(C(F)(F)F)c(-n3cccn3)n2)c1` [Example 121], the pIC50 in experiment [1] is not above 7.00; in experiment [2], 7.00 to 8.00; in experiment [3], not above 7.00; in experiment [4], not above 7.00.
`CNS(=O)(=O)c1ccc(Nc2ncc(C(F)(F)F)c(-n3cc(N4CCN(C)CC4)cn3)n2)cc1` [Example 83]: the pIC50 in experiment [1] is not above 7.00; in experiment [2], not below 8.00; in experiment [3] it was not above 7.00; in experiment [4] it was not above 7.00.
For the molecule `CNS(=O)(=O)c1ccc(Nc2ncc(C(F)(F)F)c(-n3cc([C@@H]4CCNC4)cn3)n2)cc1` [Example 94, (S)—N-methyl-4-((4-(4-(pyrrolidin-3-yl)-1H-pyrazol-1-yl)-5-(trifluoromethyl)pyrimidin-2-yl)amino)benzenesulfonamide], the negative logarithm of the IC50 (pIC50) is 7.00 to 8.00 in experiment [1], not below 8.00 in experiment [2], not above 7.00 in experiment [3] and 7.00 to 8.00 in experiment [4].
As to `CC(C)(O)CCc1cnn(-c2nc(NC3CCN(S(C)(=O)=O)CC3)ncc2C(F)(F)F)c1` [Example 109], the pIC50 in experiment [1] was 7.00 to 8.00; in experiment [2], 7.00 to 8.00; in experiment [3] it was 7.00 to 8.00; in experiment [4] it was not above 7.00.
For the molecule `CC(C)(O)CNS(=O)(=O)c1ccc(Nc2ncc(C(F)(F)F)c(-n3cccn3)n2)cc1` [Example 111], the pIC50 in experiment [1] is not above 7.00; in experiment [2], not below 8.00; in experiment [3], not above 7.00; in experiment [4], not above 7.00.
As to `CC(C)(O)Cc1cnn(-c2nc(NC3CCN(S(C)(=O)=O)CC3)ncc2C(F)(F)F)c1` [Example 7], the negative-log IC50 (pIC50) was 7.00 to 8.00 in experiment [1], not below 8.00 in experiment [2], 7.00 to 8.00 in experiment [3] and 7.00 to 8.00 in experiment [4].
`O=S(=O)(NCCOC1CC1)c1ccc(Nc2ncc(C(F)(F)F)c(-n3cccn3)n2)cc1` [Example 129]: the pIC50 in experiment [1], in experiment [2], in experiment [3] and in experiment [4] was not above 7.00 in each case.
On to `CNS(=O)(=O)c1ccc(Nc2ncc(C(F)(F)F)c(-n3cccn3)n2)cc1` [Example 16, N-methyl-4-[[4-pyrazol-1-yl-5-(trifluoromethyl)pyrimidin-2-yl]amino]benzene sulfonamide], for which the pIC50 in experiment [1] was not above 7.00; in experiment [2], not below 8.00; in experiment [3] it was not above 7.00; in experiment [4], not above 7.00.
Consider `CNS(=O)(=O)c1ccc(Nc2ncc(C(F)(F)F)c(-n3cc(N4CCCC4=O)cn3)n2)cc1` [Example 88, N-methyl-4-[[4-[4-(2-oxopyrrolidin-1-yl)pyrazol-1-yl]-5-(trifluoromethyl)pyrimidin-2-yl]amino]benzene sulfonamide], for which the negative logarithm of the IC50 (pIC50) is not above 7.00 in experiment [1], 7.00 to 8.00 in experiment [2], not above 7.00 in experiment [3] and not above 7.00 in experiment [4].
